US6579679B1, “Method for examining central nervous system diseases and method for screening remedies” (Tanabe Seiyaku Co., Ltd., priority 1998, dated 2003)

What was measured:
[1] = system: PS-2 splicing variant lacking exon 5; assay: Effect of drug on induction of expression of PS-2 splicing variants in human nerve cells under hypoxic conditions (RT-PCR, gel electrophoresis); format: cell-based; details: human neuroblastoma SK-N-SH cells, low oxygen 16 hours; cycloheximide 0.2 or 1 μg/ml, N-acetyl-L-cysteine 2 or 10 μM, diphenylene iodonium chloride 5 or 20 μM; FIG. 5
[2] = system: PS-2 splicing variants (5′-terminal fragment); assay: Detection of PS-2 splicing variants in human nerve cells after β-amyloid stimulation or hydrogen peroxide addition (RT-PCR, gel electrophoresis); format: cell-based; details: SK-N-SH cells; Aβ25-35 0.5 or 5 μM for 16 hours; H2O2 44 or 440 μM for 2 hours; FIG. 2
Protocol: After culturing human neuroblastoma SK-N-SH cells (ATCC HTB-11) in α-MEM medium (α-Minimum Essential Medium; available from GIBCO CO.) containing 10% fetal bovine serum in a 10 cm diameter culture plates at 37° C. for about 48 hours in a CO2 incubator to a confluent state, the medium was replaced with the same medium not containing fetal bovine serum followed by additional culturing for about 2 hours.
The above cultured cells were additionally cultured under the conditions (i) to (iv) indicated below (culturing was continued for an additional 16 hours under the same conditions as above for the control).
(iii) β-amyloid stimulation: Aβ25-35 (available from Sigma Co.) was added to the medium to a final concentration of 0.5 μM or 5 μM followed by incubating for 16 hours. […]
Using, the RNA (total RNA, 1 μg) obtained in section (1) above as template, this RNA was allowed to react for 1 hour at 42° C. in 0.05 ml of a buffer (0.05 M Tris-HCl, pH 8.3, 0.075 MN KCl, 0.003 M MgCl2, DTT and 0.0002 M deoxynucleotides) containing oligo dT primer (50 pmole), random oligonucleotide (5 pmole) and reverse transcriptase (available from Promega Co., Moloney leukaemia virus reverse transcriptase) (200 units) to synthesize single-strand cDNA. Using the resulting single-strand cDNA, splicing variants were detected by polymerase chain reaction (PCR) in the manner described below. […]

| Molecule | expression of a splicing variant lacking exon 5 induced by hypoxic treatment [1] | bands not observed in the control, PCR of the 5′-terminal fragment of PS-2 (induced splicing variants) [2] |
| --- | --- | --- |
| c1ccc2c(c1)[I+]c1ccccc1-2 [diphenylene iodonium chloride] | inhibited | – |
| OO [hydrogen peroxide] | – | three bands not observed in the control |
| β-amyloid: partial peptide consisting of the 25th to 35th amino acid residues of β-amyloid protein (GSNKGAIIGLM; Amyloid-beta protein 42; UniProt P05067 696-706, looked up, fragment) | – | two bands each not observed in the control |
| CC(=O)N[C@@H](CS)C(=O)O [N-acetyl-L-cysteine] | inhibited | – |
| C[C@@H]1C[C@@H]([C@H](O)CC2CC(=O)NC(=O)C2)C(=O)[C@@H](C)C1 [cycloheximide] | inhibited | – |
